Measurements published in PubChem BioAssay (NCI).
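Tested at 5 concentrations; 48 h exposure; 96-well plates; endpoints linearly interpolated, else capped at highest concentration. GI50: concentration for 50% inhibition of growth. Definition used: TGI = concentration required for complete inhibition of growth.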

What was measured:
Test in all cases: NCI-60 cell line screen, 48 h
KM12 colon = tested on: KM12 colon
DU-145 prostate = tested on: DU-145 prostate
SF-295 CNS = tested on: SF-295 CNS
MCF7 breast = tested on: MCF7 breast
HCC-2998 colon = tested on: HCC-2998 colon
SK-MEL-2 melanoma = tested on: SK-MEL-2 melanoma
HOP-62 NSCLC = tested on: HOP-62 NSCLC
PC-3 prostate = tested on: PC-3 prostate
SK-MEL-28 melanoma = tested on: SK-MEL-28 melanoma
HCT-15 colon = tested on: HCT-15 colon

| Compound | GI50 (KM12 colon) [µM] | TGI (KM12 colon) [µM] | GI50 (DU-145 prostate) [µM] | TGI (DU-145 prostate) [µM] | GI50 (SF-295 CNS) [µM] | TGI (SF-295 CNS) [µM] | GI50 (MCF7 breast) [µM] | TGI (MCF7 breast) [µM] | GI50 (HCC-2998 colon) [µM] | TGI (HCC-2998 colon) [µM] | GI50 (SK-MEL-2 melanoma) [µM] | TGI (SK-MEL-2 melanoma) [µM] | GI50 (HOP-62 NSCLC) [µM] | TGI (HOP-62 NSCLC) [µM] | GI50 (PC-3 prostate) [µM] | TGI (PC-3 prostate) [µM] | GI50 (SK-MEL-28 melanoma) [µM] | TGI (SK-MEL-28 melanoma) [µM] | GI50 (HCT-15 colon) [µM] | TGI (HCT-15 colon) [µM] |
| --- | --- | --- | --- | --- | --- | --- | --- | --- | --- | --- | --- | --- | --- | --- | --- | --- | --- | --- | --- | --- |
| COc1cc2ncn(-c3cc(OCCc4ccccc4)c(C(N)=O)s3)c2cc1OC | 18.9 | > 25 | > 23.2 | > 25 | > 25 | > 25 | 10.1 | > 25 | > 25 | > 25 | > 25 | > 25 | > 25 | > 25 | > 25 | > 25 | > 25 | > 25 | > 25 | > 25 |
| CCc1ccccc1NC(=O)c1sc2nc3c(cc2c1N)C(=O)CCC3 | 0.432 | > 100 | 0.589 | > 100 | 0.283 | > 88 | 0.328 | > 100 | 1.67 | > 100 | – | – | 0.587 | > 68.5 | 0.461 | > 100 | 3.71 | > 100 | 0.406 | > 100 |
| [Au+].[Au+].[Au+].[c-]1nccn1Cc1ccccc1.[c-]1nccn1Cc1ccccc1.[c-]1nccn1Cc1ccccc1 | 7.75 | 39.9 | 17.7 | 32.4 | 10.5 | 40.2 | 10.7 | 39 | 14.4 | 37.9 | 1.98 | 3.9 | 5.99 | 28.5 | 17.4 | 34.4 | 2.71 | 6.15 | 19.9 | 56.7 |
| O=C(Nc1ccc(CO)cc1)c1coc2ccccc2c1=O | > 100 | > 100 | > 100 | > 100 | 65.6 | > 100 | > 100 | > 100 | > 100 | > 100 | – | – | > 100 | > 100 | > 100 | > 100 | > 100 | > 100 | > 100 | > 100 |
| O=C(Nc1ccc(-c2ccccc2)cc1)C1CCN(S(=O)(=O)c2ccccc2Cl)CC1 | 36.7 | > 100 | 27.9 | > 100 | 24.4 | > 100 | 41.2 | > 100 | 59.2 | > 100 | 49.7 | > 100 | 18.8 | 40.9 | 38 | > 100 | > 100 | > 100 | 77.4 | > 100 |
| COc1ccc(OC)c2c(/C=C/c3ccc(N(C)C)cc3)ccnc12 | – | > 10 | – | > 10 | – | > 10 | – | > 10 | – | > 10 | – | > 10 | – | > 10 | – | > 10 | – | > 10 | – | > 10 |
| COc1ccc(-c2c[nH]c(=S)n2-c2ccc(OC)cc2)cc1 | > 50 | > 50 | > 50 | > 50 | > 50 | > 50 | > 50 | > 50 | – | – | > 50 | > 50 | > 50 | > 50 | > 50 | > 50 | > 50 | > 50 | > 50 | > 50 |
| NC(N)=NCCCCCNc1noc(Cc2c[nH]c3cc(Br)ccc23)n1 | 3.95 | 15.9 | 20.4 | > 100 | 17.8 | 56.6 | 16.3 | 45 | 6.12 | 23.2 | 22.8 | 57.8 | 5.84 | 28.4 | 2.57 | 79.6 | 16.3 | 36.7 | 60.5 | > 100 |
| CCOC(=O)c1c[nH]c2oc(/C=N/N3CC(CN4CCOCC4)OC3=O)cc2c1=O (stereo unspecified) | – | > 100 | – | > 100 | – | > 100 | – | > 100 | – | > 100 | – | > 100 | – | > 100 | – | > 100 | – | > 100 | – | > 100 |
| COc1ccc(-c2ccc(/C=N/n3c(C)n[nH]c3=S)o2)c([N+](=O)[O-])c1 | > 100 | > 100 | > 100 | > 100 | 36.3 | > 100 | > 100 | > 100 | > 100 | > 100 | – | – | 46 | > 100 | > 100 | > 100 | > 100 | > 100 | > 100 | > 100 |
| COc1ccc(Nc2c3ccccc3nc3occ(Cl)c23)cc1 | < 0.01 | 4.1 | 0.0874 | 22 | < 0.01 | 0.0558 | < 0.01 | > 33.2 | < 0.01 | 0.0909 | – | – | < 0.0156 | 19.1 | < 0.01 | 13.6 | 0.0265 | 21.1 | < 0.01 | – |
| Cc1cc2c(cc1Cl)SC(=Nc1ccc(Cl)cc1)N(S(=O)(=O)c1ccccc1)S2(=O)=O | 20 | 50.4 | 12.6 | 25.1 | 13.2 | 32.6 | 6.05 | 22.4 | – | – | 11.8 | 27.6 | 13.5 | 26.4 | 10.9 | 23.1 | 12.2 | 63.5 | 2.77 | 13 |
| Oc1cn(-c2ccc(Cl)cc2)nc1-c1n[nH]c(=S)n1C1CCCCC1 | 1.04 | 17.5 | 0.502 | > 33.9 | < 0.0447 | 0.479 | – | > 100 | 2.33 | 14.3 | > 52.3 | > 100 | 1.67 | > 100 | 11.4 | > 66.9 | 0.639 | > 100 | 0.31 | > 100 |
| COc1ccc2[nH]c3c4c(ccc3c2c1)C(=O)C=CC4=O | – | 49.1 | – | > 100 | – | 53.9 | – | 30.1 | – | 45.9 | – | 28.5 | – | > 94.4 | – | 33.8 | – | 20.2 | – | 11.4 |
| O=C(Nc1ccc(-n2cc(-c3ccncc3)c(-c3ccc(Cl)c(O)c3)n2)cc1)Nc1ccc(Cl)c(C(F)(F)F)c1 | 1.47 | 3.01 | 1.84 | 3.85 | 1.26 | 2.86 | 2.12 | 5.65 | 1.78 | 3.25 | 1.7 | 3.27 | 1.68 | 3.18 | 1.86 | 9.63 | 1.63 | 3.45 | 1.31 | 2.95 |
| COCCOc1cnc2ccn([C@H](C)c3nnc4c(F)cc(-c5cnn(C)c5)cn34)c(=O)c2c1 | 24.4 | > 100 | > 100 | > 100 | 23.4 | > 100 | > 100 | > 100 | > 100 | > 100 | > 100 | > 100 | > 100 | > 100 | > 100 | > 100 | > 100 | > 100 | > 100 | > 100 |
| Cn1cc(C2=C(c3cn(CCCCCN)c4ccccc34)C(=O)NC2=O)c2ccccc21 | 17.8 | > 25 | 13.8 | > 25 | 9.37 | > 20.1 | 5.51 | > 18 | > 25 | > 25 | 7.1 | 18.2 | 15.2 | > 25 | 13.8 | > 25 | 12.7 | > 25 | 7.01 | > 25 |
| COc1cc2c(cc1O)C1Cc3ccc(OC)c(O)c3C(C2)N1C (stereo unspecified) | – | > 100 | – | > 100 | – | > 100 | – | > 100 | – | > 100 | – | > 100 | – | > 100 | – | > 100 | – | > 100 | – | > 100 |
| O=C(COc1ccc(/C=C2\CSc3ccccc3C2=O)cc1)Nc1nccs1 | 2.96 | 8.99 | 4.2 | 14.3 | 11.8 | 25.6 | 3.43 | 10.6 | 4.03 | 17.1 | 11.3 | 23.3 | 16.3 | 30.8 | 3.97 | 28.9 | 11.8 | 24.1 | 4.03 | 14.7 |
| COc1ccc2c(c1)[C@@]13CCCC[C@H]1[C@@H](C2)N(C)CC3=O | – | 33.6 | – | 45.2 | – | > 100 | – | 33.2 | – | 31.5 | – | 53.9 | – | > 100 | – | 29 | – | 30 | – | 32.1 |
| O=C(/C=C/c1cc(CN2CCOCC2)c(O)c2ncccc12)c1cc(CN2CCOCC2)c(O)c2ncccc12 | 0.0437 | > 100 | < 0.0219 | > 100 | 0.0529 | > 36.4 | < 0.0175 | > 100 | 0.0506 | > 100 | 0.0637 | 4.99 | 0.0335 | > 39 | 0.05 | > 100 | 0.594 | > 100 | 0.0236 | > 100 |
| N#CC(=NCCO)C1=C(O)c2ccccc2C1=O | – | > 100 | – | > 100 | – | > 100 | – | > 100 | – | – | – | > 100 | – | > 100 | – | > 100 | – | > 100 | – | > 100 |
| C=C1C(=O)O[C@H]2[C@H]1CC/C(COC(=O)c1ccc(Cl)nc1)=C\CC[C@@]1(C)O[C@@H]21 | 3.96 | 16.7 | 1.75 | 4.01 | 10.9 | 22.9 | 1.08 | 3.72 | 4.68 | 18 | 2.06 | 5.51 | 11 | 26.3 | 10.2 | 23.1 | 1.94 | 4.9 | 1.36 | 3.39 |
| COc1cc2c3c(n(CCCN(C)C)c(=O)c2cc1OC)-c1ccccc1C3=O | 5.61 | 41.9 | 5.05 | 24.7 | 1.26 | – | 2.34 | > 53.4 | 3.17 | 18.6 | > 100 | > 100 | 3.57 | > 89.8 | 9.02 | > 48.7 | 8.5 | > 65 | 17.8 | > 53.3 |
| Nc1nc(SN=Nc2ccc(S(N)(=O)=O)cc2)c2[nH]cnc2n1 | 1.64 | 20 | 0.469 | > 94.8 | 0.363 | > 100 | 0.289 | > 100 | 0.508 | > 100 | 1.24 | > 100 | 0.62 | > 100 | 1.64 | > 100 | 2.29 | > 52.5 | 0.563 | > 100 |
| N#C/C(=C/N1CCN(C(=O)c2ccco2)C1=S)C(=O)c1ccccc1 | 6.49 | > 100 | 5.01 | > 100 | 43.6 | > 100 | 4.47 | > 100 | – | – | 3.68 | 15.8 | 22 | 47 | 31.7 | > 100 | 28 | > 100 | 5.73 | > 100 |
| Cc1cc(S(=O)(=O)N/N=C(\Sc2cc(Cl)c(C)cc2S(N)(=O)=O)c2ccc(Cl)cc2)c(Cl)cc1Cl | > 100 | > 100 | > 100 | > 100 | > 100 | > 100 | 42.8 | > 100 | – | – | > 100 | > 100 | > 100 | > 100 | 86.4 | > 100 | > 100 | > 100 | > 100 | > 100 |
| COc1cc(C2=C(c3cn(C)c4ccccc34)COC2=O)cc(OC)c1OC | – | – | 0.211 | > 100 | – | – | 0.0274 | > 19.8 | 0.429 | 5.2 | 0.0562 | 18.5 | 0.123 | > 34.8 | 0.125 | 53.8 | 0.754 | 29.8 | 0.0416 | 2.28 |
